Test system: HCT-15
Experiment: Cell viability by XTT
Format: cell-based
Conditions: HCT-15, single dose 10 μM, four days
Procedure: Compounds were solubilized at […] in DMSO and were stored at −20° C. Test compounds were initially tested at a single concentration of 10 μM and a subset of test compounds were further tested in selected cell lines using a six concentration dose response curve.
Cell Preparation Cancer cell lines were passaged in T-75 flasks prior to use in the assay in cell culture medium recommended by the ATCC (American Type Culture Collection; Table 6). On the day preceding the assay, the cells were split 1:2 to assure they were in an exponential growth phase at the time of compound treatment. Total cell and viability quantification was performed using a hemocytometer and Trypan Blue dye exclusion. […] The cells were resuspended at the appropriate cell per mL (Table 6) in tissue culture medium and added to the microtitre plates in a volume of 100 μL. Colon cell lines were incubated overnight at 37° C./5% CO2 to allow for cell adherence to the plates.
Plate Format: Each plate contains cell control wells (cells only), drug calorimetric control wells (drug only) as well as experimental wells (drug plus cells). Samples were tested in triplicate at a concentration of 10 μM and five half-logarithmic dilutions.
Cell Viability by XTT: Following incubation at 37° C. in a 5% CO2 incubator for four days, the test plates were stained with the tetrazolium dye XTT (2,3-bis(2-methoxy-4-nitro-5-sulfophenyl)-5-[(phenylamino)carbonyl]-2H-tetrazolium hydroxide). XTT-tetrazolium was metabolized by the mitochondrial enzymes of metabolically active cells to a soluble formazan product. XTT solution was prepared daily as a stock of 1 mg/mL in RPMI1640. Phenazine methosulfate (PMS) solution was prepared at 0.15 mg/mL in phosphate buffered saline (PBS) and stored in the dark at −20° C. XTT/PMS stock was prepared immediately before use by adding 40 μL of PMS per mL of XTT solution. Fifty (50) microlitres of XTT/PMS was added to each well of the plate and the plate was reincubated for 4 hours at 37° C. Plates were sealed with adhesive plate sealers and shaken gently or inverted several times to mix the soluble formazan product and the plate was read spectrophotometrically at 450/650 nm with a Molecular Devices Vmax plate reader. […] An Average Response Factor (ARF) was calculated for each compound by averaging the ten Percentage of Control values for the cell lines. […] Deviations below 100% control indicate activity. The concentration of each tested compound is 10 μM.

Structure (SMILES): CC(C)(C)c1ccc(NC(=O)[C@H](CCCCN)NC(=O)OCC2c3ccccc3-c3ccccc32)cc1 [Compound 105, (S)-[5-AMINO-1-(4-TERT-BUTYL-PHENYLCARBAMOYL)-PENTYL]-CARBAMIC ACID 9H-FLUOREN-9-YLMETHYL ESTER]
- Percentage of Cell Control: 85.6%
